Literature values in US9119796B2, “Razor comprising a molded shaving aid composition comprising a pyrithione source” (The Gillette Company, priority 2011, dated 2015).

Test system: microbials
Conditions: soap bar composition with platelet ZPT compared with particulate ZPT (median about 0.70 microns, mean about 0.75 microns, thickness less than 0.6 microns); FIG. 1 of U.S. Ser. No. 13/036,889

[O-]n1ccccc1=S.[O-]n1ccccc1=S.[Zn+2] [platelet ZPT, zinc salt of 1-hydroxy-2-pyridinethione]
number of colony forming units (CFUs) that form on a substrate: reduces the number of colony forming units (CFUs)
